Read-outs that look alike come from different tables or passages of the source. Square brackets hold non-standard residues; d marks the D form. Ends that are not written are not given here. Peptide text beside a SMILES is read from it. pY = N[C@@H](Cc1ccc(OP(=O)(O)O)cc1)C(=O)O
Key:
[1] = biological target: T1, Shc PTB domain (GST-ShcB) binding to activated EGF-R (Homo sapiens, UniProt P29353); assay: In vitro binding assay: competitive inhibition of EGF receptor binding to GST-ShcB in HER14 lysates; conditions: FIG. 10 Panel A; for inhibition of association of Shc and EGF-R: dose response, cyclic peptides, 5 μM
T1 construct: made in house
T1 sequence (P29353 156-339 limits assumed): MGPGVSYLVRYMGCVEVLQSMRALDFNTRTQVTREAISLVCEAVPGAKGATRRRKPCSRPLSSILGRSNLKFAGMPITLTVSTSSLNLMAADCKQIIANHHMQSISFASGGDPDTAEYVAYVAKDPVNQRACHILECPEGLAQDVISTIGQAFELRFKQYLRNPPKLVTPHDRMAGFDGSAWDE
Method: HER14 cells (3T3 cells expressing EGF-R) were starved in 0.5% CS media for 24 hours and stimulated with 100 ng/ml EGF for 5 min. Cells were lysed and mixed with GST, GST-ShcB or GST-R175M beads. Proteins which bound to beads were resolved on SDS-PAGE and detected by anti-phospho-Tyr antibody (4G10) or by anti-EGF-R.
The peptides listed in Table 2 were added to cell lysates at 5 μM, incubated for 30 min., and treated with GST-ShcB beads. Proteins bound to GST-ShcB were detected by anti-phospho-Tyr antibody. […] The experiment was repeated with the peptides dissolved in DMSO (FIG. 9).

[2] = biological target: T2, Shc PTB domain (Homo sapiens, UniProt P29353); assay: Surface plasmon resonance competition of GST-Shc PTB domain binding to immobilized polyoma middle T antigen phosphopeptide
T2 construct: containing 1 μM GST-Shc PTB domain fusion protein; made in house
T2 sequence (P29353 156-339 limits assumed): T1 sequence (P29353 156-339 limits assumed)
Method: Surface plasmon resonance analysis was carried out using a Biacore apparatus (Pharmacia Biosensor) as described previously (Puil et al., 1994). The peptide L-S-L-L-S-N-P-T-p.Y-S-V-M-R-S-K (SEQ ID NO:23) was immobilized to a biosensor chip through injection of a 0.5 mM solution of the phosphopeptide, in 50 mM HEPES, pH 7.5 and 2 M NaCl, across the chip surface previously activated following procedures outlined by the manufacturer. Injection of anti-phosphotyrosine antibody was used to confirm that successful immobilization of the peptide was achieved. Solutions (100 μl) containing 1 μM GST-Shc PTB domain fusion protein and the indicated concentrations of soluble phosphopeptide in 50 mM Na phosphate, pH 7.5, 150 mM NaCl, 0.1 mM EDTA, and 2 mM DTT, were injected across the surface. The amount of bound GST-Shc PTB domain was estimated from the surface plasmon resonance signal at a fixed time following the end of the injection and the percentage bound, relative to injection of GST-Shc PTB domain alone, calculated. The surface was regenerated using 2 M Guanidinium-HCl.

[3] = test system: cells; assay: Peptide localization in cells (anti-phospho-Tyr immunofluorescence); assay type: cell-based
Method: To examine peptide localization, cells were treated with P-1 or P-2 peptide for 4 hours, stained with anti-phospho-Tyr and rhodamine-conjugated antibody, and observed with a confocal microscope. A Z-scan was carried out to make images in each 0.15 μm section from the top of the cells to the bottom. […] Cells treated with P-1 peptide were not stained by anti-phospho-Tyr antibody, confirming the specifity of the immunofluoroscence staining. In a time course analysis, cells were serum-starved for 24 hours, and incubated with peptide (5 μM) for various time periods. Cells were stained by anti-phosphoro-Tyr antibody and analyzed under an immunofluoroscence microscope. Cells treated with P-2 peptide retained phospho-peptide for up to 24 hrs. In a dose response experiment, cells were starved in serum-free medium for 24 hours, cultured with peptide at various concentrations, and stained with anti-phospho-tyrosine antibody (4G10) to detect the peptide containing phospho-tyrosine residue (red) and by Hoechst 33258 for nuclei (blue). P-2 peptide was detected at 0.5 μM and 1 μM in cells .

[4] = peptide concentration inhibiting by 50% binding of 1 μM GST-Shc PTB domain to immobilized polyoma middle T antigen phosphopeptide, read-out: IC 50

IC50 [2, 4] [nM]	Compound	IC50 [2] [nM]	also measured
–	CC[C@H](C)[C@@H]1NC(=O)CNC(=O)[C@@H]2CCCN2C(=O)[C@H](CO)NC(=O)[C@H](Cc2ccccc2)NC(=O)[C@H](Cc2ccc(OP(=O)(O)O)cc2)NC(=O)[C@H](CCC(N)=O)NC(=O)[C@@H]2CCCN2C(=O)[C@H](CC(N)=O)NC(=O)[C@H](CCC(=O)O)NC1=O [C-1, Cyclo-(IENPQpYFSPG)] (cyclo(ENPQ[pY]FSPGI))	–	inhibition at 100 µM ([1]; 100 μM, read-out: inhibition of association of Shc and EGF-R): ~50%
–	NC(=O)CC[C@@H]1NC(=O)[C@@H]2CCCN2C(=O)[C@H](CC(N)=O)NC(=O)[C@H](Cc2ccc(OP(=O)(O)O)cc2)NC1=O [C-3, Cyclo-(NPQpY)] (cyclo(NPQ[pY]))	–	inhibition of association of Shc and EGF-R [1]: did not inhibit
–	NC(=O)CC[C@@H]1NC(=O)[C@@H]2CCCN2C(=O)[C@H](CC(N)=O)NC(=O)CNC(=O)[C@H](Cc2ccc(OP(=O)(O)O)cc2)NC1=O [C-4, Cyclo-(NPQpYG)] (cyclo(GNPQ[pY]))	–	inhibition of association of Shc and EGF-R [1]: did not inhibit
–	NC(=O)CC[C@@H]1NC(=O)[C@@H]2CCCN2C(=O)[C@H](CC(N)=O)NC(=O)CNC(=O)CNC(=O)[C@H](Cc2ccc(OP(=O)(O)O)cc2)NC1=O [C-5, Cyclo-(NPQpYGG)] (cyclo(GGNPQ[pY]))	–	inhibition of association of Shc and EGF-R [1]: did not inhibit
–	C[C@H](NC(=O)[C@H](C)NC(=O)[C@@H](N)Cc1c[nH]cn1)C(=O)N[C@@H](CCC(=O)O)C(=O)N[C@@H](CC(N)=O)C(=O)N1CCC[C@H]1C(=O)N[C@@H](CCC(N)=O)C(=O)N[C@@H](Cc1ccc(OP(=O)(O)O)cc1)C(=O)N[C@@H](Cc1ccccc1)C(=O)N[C@@H](CO)C(=O)N[C@@H](CC(=O)O)C(=O)O [H-A-A-E-N-P-Q-P.Y-F-S-D, H-A-A-E-N-P-Q-p.Y-F-S-D] (H-HAAENPQ[pY]FSD-OH)	475	–
–	CC[C@H](C)[C@H](NC(=O)[C@H](C)NC(=O)[C@@H](N)Cc1c[nH]cn1)C(=O)N[C@@H](CCC(=O)O)C(=O)N[C@@H](CC(N)=O)C(=O)N1CCC[C@H]1C(=O)N[C@@H](CCC(N)=O)C(=O)N[C@@H](Cc1ccc(OP(=O)(O)O)cc1)C(=O)N[C@@H](Cc1ccccc1)C(=O)N[C@@H](CO)C(=O)N[C@@H](CC(=O)O)C(=O)O [H-A-I-E-N-P-Q-P.Y-F-S-D, His-Ala-Ile-Glu-Asn-Pro-Gln-P.Tyr-Phe-Ser-Asp] (H-HAIENPQ[pY]FSD-OH)	20	–
15000	C[C@H](NC(=O)[C@@H](N)Cc1c[nH]cn1)C(=O)N[C@@H](CO)C(=O)N[C@@H](CCC(=O)O)C(=O)N[C@@H](CC(N)=O)C(=O)N1CCC[C@H]1C(=O)N[C@@H](CCC(N)=O)C(=O)N[C@@H](Cc1ccc(OP(=O)(O)O)cc1)C(=O)N[C@@H](Cc1ccccc1)C(=O)N[C@@H](CO)C(=O)N[C@@H](CC(=O)O)C(=O)O [H-A-S-E-N-P-Q-P.Y-F-S-D, H-A-S-E-N-P-Q-p.Y-F-S-D] (H-HASENPQ[pY]FSD-OH)	–	–
–	CC[C@H](C)[C@H](NC(=O)[C@@H](N)Cc1c[nH]cn1)C(=O)N[C@@H](C)C(=O)N[C@@H](CCC(=O)O)C(=O)N[C@@H](CC(N)=O)C(=O)N1CCC[C@H]1C(=O)N[C@@H](CCC(N)=O)C(=O)N[C@@H](Cc1ccc(OP(=O)(O)O)cc1)C(=O)N[C@@H](Cc1ccccc1)C(=O)N[C@@H](CO)C(=O)N[C@@H](CC(=O)O)C(=O)O [H-I-A-E-N-P-Q-P.Y-F-S-D, His-Ile-Ala-Glu-Asn-Pro-Gln-P.Tyr-Phe-Ser-Asp] (H-HIAENPQ[pY]FSD-OH)	250	–
80000	CC[C@H](C)[C@H](NC(=O)[C@@H](NC(=O)[C@@H](N)Cc1c[nH]cn1)[C@@H](C)CC)C(=O)N[C@@H](CCC(=O)O)C(=O)N[C@@H](C)C(=O)N1CCC[C@H]1C(=O)N[C@@H](CCC(N)=O)C(=O)N[C@@H](Cc1ccc(OP(=O)(O)O)cc1)C(=O)N[C@@H](Cc1ccccc1)C(=O)N[C@@H](CO)C(=O)N[C@@H](CC(=O)O)C(=O)O [H-I-I-E-A-P-Q-P.Y-F-S-D, His-Ile-Ile-Glu-Ala-Pro-Gln-P.Tyr-Phe-Ser-Asp] (H-HIIEAPQ[pY]FSD-OH)	–	–
2500	CC[C@H](C)[C@H](NC(=O)[C@@H](NC(=O)[C@@H](N)Cc1c[nH]cn1)[C@@H](C)CC)C(=O)N[C@@H](CCC(=O)O)C(=O)N[C@@H](CC(N)=O)C(=O)N[C@@H](C)C(=O)N[C@@H](CCC(N)=O)C(=O)N[C@@H](Cc1ccc(OP(=O)(O)O)cc1)C(=O)N[C@@H](Cc1ccccc1)C(=O)N[C@@H](CO)C(=O)N[C@@H](CC(=O)O)C(=O)O [H-I-I-E-N-A-Q-P.Y-F-S-D, His-Ile-Ile-Glu-Asn-Ala-Gln-P.Tyr-Phe-Ser-Asp] (H-HIIENAQ[pY]FSD-OH)	–	–
–	CC[C@H](C)[C@H](NC(=O)[C@@H](NC(=O)[C@@H](N)Cc1c[nH]cn1)[C@@H](C)CC)C(=O)N[C@@H](CCC(=O)O)C(=O)N[C@@H](CC(N)=O)C(=O)N1CCC[C@H]1C(=O)N[C@@H](CCC(N)=O)C(=O)N[C@@H](Cc1ccc(OP(=O)(O)O)cc1)C(=O)N[C@@H](Cc1ccccc1)C(=O)N[C@@H](CO)C(=O)N[C@@H](CC(=O)O)C(=O)O [H-I-I-E-N-P-Q-P.Y-F-S-D, His-Ile-Ile-Glu-Asn-Pro-Gln-P.Tyr-Phe-Ser-Asp] (H-HIIENPQ[pY]FSD-OH)	175	–
–	CC[C@H](C)[C@H](N)C(=O)N[C@@H](CCC(=O)O)C(=O)N[C@@H](CC(N)=O)C(=O)N1CCC[C@H]1C(=O)N[C@@H](CCC(N)=O)C(=O)N[C@@H](Cc1ccc(OP(=O)(O)O)cc1)C(=O)N[C@@H](Cc1ccccc1)C(=O)N[C@@H](CO)C(=O)N[C@@H](CC(=O)O)C(=O)O [IENPQpYFSD] (H-IENPQ[pY]FSD-OH)	4000	–
–	CC[C@H](C)[C@H](NC(=O)[C@H](CCCCN)NC(=O)[C@@H](NC(=O)[C@H](CCC(N)=O)NC(=O)[C@@H](N)CCCNC(=N)N)[C@@H](C)CC)C(=O)N[C@@H](Cc1c[nH]c2ccccc12)C(=O)N[C@@H](Cc1ccccc1)C(=O)N[C@@H](CCC(N)=O)C(=O)N[C@@H](CC(N)=O)C(=O)N[C@@H](CCCNC(=N)N)C(=O)N[C@@H](CCCNC(=N)N)C(=O)N[C@@H](CCSC)C(=O)N[C@@H](CCCCN)C(=O)N[C@@H](Cc1c[nH]c2ccccc12)C(=O)N[C@@H](CCCCN)C(=O)N[C@@H](CCCCN)C(=O)N[C@@H](Cc1c[nH]cn1)C(=O)N[C@H](C(=O)N[C@H](C(=O)N[C@@H](CCC(=O)O)C(=O)N[C@@H](CC(N)=O)C(=O)N1CCC[C@H]1C(=O)N[C@@H](CCC(N)=O)C(=O)N[C@@H](Cc1ccc(OP(=O)(O)O)cc1)C(=O)N[C@@H](Cc1ccccc1)C(=O)N[C@@H](CO)C(=O)N[C@@H](CC(=O)O)C(=O)O)[C@@H](C)CC)[C@@H](C)CC [P-2, RQIKIWFQNRRMKWKK-HIIENPQpYFSD] (H-RQIKIWFQNRRMKWKKHIIENPQ[pY]FSD-OH)	–	peptide localization in cells ([3]; cells treated 4 hours, anti-phospho-Tyr staining, confocal microscope): localized in the cytoplasm of cells, and not in the nucleus; detection of peptide in cells by anti-phospho-tyrosine staining ([3]; dose response, 0.5 μM and 1 μM (concentrations up to 1 μM)): detected; retention of phospho-peptide in cells ([3]; time course, peptide 5 μM, serum-starved cells): up to 24 hrs
90	CC[C@H](C)[C@H](NC(=O)[C@H](C)NC(=O)[C@@H](N)Cc1ccc(O)cc1)C(=O)N[C@@H](CO)C(=O)N[C@@H](CC(N)=O)C(=O)N1CCC[C@H]1C(=O)N[C@@H](CCC(=O)O)C(=O)N[C@@H](Cc1ccc(OP(=O)(O)O)cc1)C(=O)N[C@@H](CC(C)C)C(=O)N[C@@H](CO)C(=O)N[C@@H](C)C(=O)O [Y-A-I-S-N-P-E-P.Y-L-S-A, Tyr-Ala-Ile-Ser-Asn-Pro-Glu-P.Tyr-Leu-Ser-Ala] (H-YAISNPE[pY]LSA-OH)	–	–
7000	CC(C)C[C@H](NC(=O)[C@H](Cc1ccc(OP(=O)(O)O)cc1)NC(=O)[C@H](CCC(=O)O)NC(=O)[C@@H]1CCCN1C(=O)[C@H](CC(N)=O)NC(=O)[C@H](CO)NC(=O)[C@H](CO)NC(=O)[C@H](C)NC(=O)[C@@H](N)Cc1ccc(O)cc1)C(=O)N[C@@H](CO)C(=O)N[C@@H](C)C(=O)O [Y-A-S-S-N-P-E-P.Y-L-S-A, Y-A-S-S-N-P-E-p.Y-L-S-A] (H-YASSNPE[pY]LSA-OH)	–	–
–	RQIKIWFQNRRMKWKKHIIENPQYFSD [P-1, RQIKIWFQNRRMKWKK-HIIENPQYFSD]	–	peptide localization in cells [3]: not stained
